The numbers were not newly measured in PubChem BioAssay AID1259409 (Chemical Carcinogenesis Research Information System (CCRIS), 2018), which cites them from elsewhere.

The data set concerns rodent chemically induced tumor inhibition, incidence and multiplicity. The data set is described as follows: CCRIS tumor inhibitor studies.

Take `CC(=O)Oc1ccccc1C(=O)O`: the “tumour outcome (control, treated, inhibition, significance)” value is listed as 26%, 19%, 27%, not significant (Carcinogen: AZOXYMETHANE, 25843-45-2, Dose [Inhibitor]: 0, 250 PPM IN DIET FOR 34 WK BEGINNING 1 WK POST LAST CARCINOGEN DOSE (STUDY DURATION: 49 WK), Route [Inhibitor]: ORAL, Species: RAT, Strain/Sex: F344/MALE, Target Tissue: Type of Lesion: COLON: ADENOCARCINOMA, Dose [Carcinogen]: 12 MG/KG BW IN 0.9% SALINE TWICE, Promoter: CHOLIC ACID, 81-25-4); 81%, 77%, 5%, not significant (Carcinogen: AZOXYMETHANE, 25843-45-2, Dose [Inhibitor]: 0, 250 PPM IN DIET FOR 34 WK BEGINNING 1 WK POST LAST CARCINOGEN DOSE (STUDY DURATION: 49 WK), Route [Inhibitor]: ORAL, Species: RAT, Strain/Sex: F344/MALE, Target Tissue: Type of Lesion: COLON: ADENOMA, Dose [Carcinogen]: 12 MG/KG BW IN 0.9% SALINE TWICE, Promoter: CHOLIC ACID, 81-25-4); 23%, 23%, 0%, not significant (Carcinogen: AZOXYMETHANE, 25843-45-2, Dose [Inhibitor]: 0, 250 PPM IN DIET FOR 34 WK BEGINNING 1 WK POST LAST CARCINOGEN DOSE (STUDY DURATION: 49 WK), Route [Inhibitor]: ORAL, Species: RAT, Strain/Sex: F344/MALE, Target Tissue: Type of Lesion: SMALL INTESTINE: ADENOCARCINOMA, Dose [Carcinogen]: 12 MG/KG BW IN 0.9% SALINE TWICE, Promoter: CHOLIC ACID, 81-25-4); 17%, 23%, -35%, not significant (Carcinogen: AZOXYMETHANE, 25843-45-2, Dose [Inhibitor]: 0, 250 PPM IN DIET FOR 34 WK BEGINNING 1 WK POST LAST CARCINOGEN DOSE (STUDY DURATION: 49 WK), Route [Inhibitor]: ORAL, Species: RAT, Strain/Sex: F344/MALE, Target Tissue: Type of Lesion: SMALL INTESTINE: ADENOMA, Dose [Carcinogen]: 12 MG/KG BW IN 0.9% SALINE TWICE, Promoter: CHOLIC ACID, 81-25-4); 78%, 47%, 40%, p<0.01 (Carcinogen: AZOXYMETHANE, 25843-45-2, Dose [Inhibitor]: 0, 400 PPM IN DIET BEGINNING 2 WK PRIOR TO CARCINOGEN TREATMENT AND CONTINUING FOR 52 WK (STUDY DURATION: 54 WK), Route [Inhibitor]: ORAL, Species: RAT, Strain/Sex: F344/MALE, Target Tissue: Type of Lesion: COLON: ADENOCARCINOMA, Dose [Carcinogen]: 15 MG/KG BW 1/WK FOR 2 WK, Promoter: NONE USED); 100%, 100%, 0%, not significant (Carcinogen: DIMETHYLHYDRAZINE HYDROCHLORIDE, 306-37-6, Dose [Inhibitor]: 0, 5 MG/KG 1/D 5D/WK BY GAVAGE AND SAME DOSE IN DIET 2 D/WK FOR 18 WK (STUDY DURATION: 18 WK), Route [Inhibitor]: GAVAGE, ORAL, Species: RAT, Strain/Sex: WISTAR/MALE, Target Tissue: Type of Lesion: COLON: TUMOR, Dose [Carcinogen]: 30 MG/KG/WK FOR 18 WK, Promoter: NONE USED). In addition, the “tumour outcome (control, treated, inhibition, significance)” value is listed as 100%, 50%, 50%, p<0.03 (Carcinogen: DIMETHYLHYDRAZINE HYDROCHLORIDE, 306-37-6, Dose [Inhibitor]: 0, 30 MG/KG 1/D 5 D/WK BY GAVAGE AND THE SAME DOSE IN DIET 2 D/WK FOR 18 WK (STUDY DURATION: 18 WK), Route [Inhibitor]: GAVAGE, ORAL, Species: RAT, Strain/Sex: WISTAR/MALE, Target Tissue: Type of Lesion: COLON: TUMOR, Dose [Carcinogen]: 30 MG/KG/WK FOR 18 WK, Promoter: NONE USED); 100%, 25%, 75%, p<0.01 (Carcinogen: DIMETHYLHYDRAZINE HYDROCHLORIDE, 306-37-6, Dose [Inhibitor]: 0, 60 MG/KG 1/D 5 D/WK BY GAVAGE AND THE SAME DOSE IN DIET 2 D/WK FOR 18 WK (STUDY DURATION: 18 WK), Route [Inhibitor]: GAVAGE, ORAL, Species: RAT, Strain/Sex: WISTAR/MALE, Target Tissue: Type of Lesion: COLON: TUMOR, Dose [Carcinogen]: 30 MG/KG/WK FOR 18 WK, Promoter: NONE USED); 8/29 (28%), 1/29 (3%), 89%, p<0.05 (Carcinogen: N-BUTYL-(4-HYDROXYBUTYL)NITROSAMINE, 3817-11-6, Dose [Inhibitor]: 0, 1 G/KG IN DIET FROM WK 1 THROUGH WK 20 OF STUDY, Route [Inhibitor]: ORAL, Species: RAT, Strain/Sex: WISTAR/MALE, Target Tissue: Type of Lesion: BLADDER: TUMOR, Dose [Carcinogen]: 0.05% IN DRINKING WATER FROM WK 2 THROUGH WK 10 OF STUDY (STUDY DURATION: 32 WK), Promoter: NONE USED); 22/75 (29%), 21/74 (28%), 3%, not significant (Carcinogen: N-BUTYL-N-(4-HYDROXYBUTYL)NITROSAMINE, 3817-11-6, Dose [Inhibitor]: 0, 400 MG/KG DIET FOR 24 WK BEGINNING 1 WK PRIOR TO CARCINOGEN TREATMENT (STUDY DURATION: 24 WK), Route [Inhibitor]: ORAL, Species: MOUSE, Strain/Sex: BDF/MALE, Target Tissue: Type of Lesion: URINARY BLADDER: TRANSITIONAL CELL CARCINOMA, Dose [Carcinogen]: 7.5 MG 1/WK FOR 8 WK, Promoter: NONE USED); 22/75 (29%), 22/73 (30%), -3%, not significant (Carcinogen: N-BUTYL-N-(4-HYDROXYBUTYL)NITROSAMINE, 3817-11-6, Dose [Inhibitor]: 0, 800 MG/KG DIET FOR 24 WK BEGINNING 1 WK PRIOR TO CARCINOGEN TREATMENT (STUDY DURATION: 24 WK), Route [Inhibitor]: ORAL, Species: MOUSE, Strain/Sex: BDF/MALE, Target Tissue: Type of Lesion: URINARY BLADDER: TRANSITIONAL CELL CARCINOMA, Dose [Carcinogen]: 7.5 MG 1/WK FOR 8 WK, Promoter: NONE USED); 3/39 (8%), 1/20 (5%), 38%, not significant (Carcinogen: N-METHYL-N'-NITRO-N-NITROSOGUANIDINE, 70-25-7, Dose [Inhibitor]: FOLLOWING 8 WK CARCINOGEN/NACL REGIMEN, RATS FED DIETS SUPPLEMENTED WITH 1% ASPIRIN FOR 32 WK (STUDY DURATION: 40 WK), Route [Inhibitor]: ORAL, Species: RAT, Strain/Sex: WISTAR/MALE, Target Tissue: Type of Lesion: DUODENUM: ADENOCARCINOMA, Dose [Carcinogen]: 100 MG/L IN DRINKING WATER FOR 8 WK, AND SIMULTANEOUSLY FED DIET SUPPLEMENTED WITH 10% NACL, Promoter: SODIUM CHLORIDE, 7647-14-5). The “tumour outcome (control, treated, inhibition, significance)” value by setting is: (Carcinogen: N-METHYL-N'-NITRO-N-NITROSOGUANIDINE, 70-25-7, Dose [Inhibitor]: FOLLOWING 8 WK CARCINOGEN/NACL REGIMEN, RATS FED DIETS SUPPLEMENTED WITH 1% ASPIRIN FOR 32 WK (STUDY DURATION: 40 WK), Route [Inhibitor]: ORAL, Species: RAT, Strain/Sex: WISTAR/MALE, Target Tissue: Type of Lesion: GLANDULAR STOMACH: ADENOCARCINOMA, Dose [Carcinogen]: 100 MG/L IN DRINKING WATER FOR 8 WK, AND SIMULTANEOUSLY FED DIET SUPPLEMENTED WITH 10% NACL, Promoter: SODIUM CHLORIDE, 7647-14-5) 3/39 (8%), 0/20 (0%), 100% not significant; (Carcinogen: N-METHYL-N'-NITRO-N-NITROSOGUANIDINE, 70-25-7, Dose [Inhibitor]: FOLLOWING 8 WK CARCINOGEN/NACL REGIMEN, RATS FED DIETS SUPPLEMENTED WITH 1% ASPIRIN FOR 32 WK (STUDY DURATION: 40 WK), Route [Inhibitor]: ORAL, Species: RAT, Strain/Sex: WISTAR/MALE, Target Tissue: Type of Lesion: GLANDULAR STOMACH: PRENEOPLASTIC HYPERPLASIA, Dose [Carcinogen]: 100 MG/L IN DRINKING WATER FOR 8 WK, AND SIMULTANEOUSLY FED DIET SUPPLEMENTED WITH 10% NACL, Promoter: SODIUM CHLORIDE, 7647-14-5) 5/39 (13%), 2/20 (10%), 23%, not significant; (Carcinogen: N-NITROSOBIS(2-OXOPROPYL)AMINE, 60599-38-4, Dose [Inhibitor]: 0, 1% IN DIET FOR 27 WK BEGINNING POST LAST CARCINOGEN DOSE (STUDY DURATION: 32 WK), Route [Inhibitor]: ORAL, Species: HAMSTER, Strain/Sex: SYRIAN/FEMALE, Target Tissue: Type of Lesion: PANCREAS: ADENOCARCINOMA, Dose [Carcinogen]: 10 MG/KG 1/WK FOR 5 WK, Promoter: NONE USED) 20/28 (71%), 10/19 (53%), 25%, not calculated; (Carcinogen: N-NITROSODIETHYLAMINE, 55-18-5, 2-ACETYLAMINOFLUORENE, 53-93-6, CARBON TETRACHLORIDE, 56-23-5, Carcinogen: N-NITROSODIETHYLAMINE, 55-18-5, 2-ACETYLAMINOFLUORENE, 53-93-6, CARBON TETRACHLORIDE, 56-23-5, Dose [Inhibitor]: 0, 0.75% IN DIET FOR 29 WK ADMINISTERED TO RATS BEARING PERSISTENT NODULES FOLLOWING CARCINOGEN TREATMENT (STUDY DURATIO, Route [Inhibitor]: ORAL, Species: RAT, Strain/Sex: F344/MALE, Target Tissue: Type of Lesion: LIVER: HEPATOCELLULAR CARCINOMA, Dose [Carcinogen]: 200 MG/KG BW DEN ONCE, 0.002% 2-AAF IN DIET FOR 2 WK, 1 MG/KG BW CCL4 MIDWAY IN 2-AAF TREATMENT, Dose [Carcinogen]: 200 MG/KG BW DEN ONCE, 0.002% 2-AAF IN DIET FOR 2 WK, 1 MG/KG BW CCL4 MIDWAY IN 2-AAF TREATMENT, Promoter: NONE USED) 7/8 (88%), 5/13 (38%), 57%, not significant; (Carcinogen: N-NITROSODIETHYLAMINE, 55-18-5, 2-ACETYLAMINOFLUORENE, 53-93-6, CARBON TETRACHLORIDE, 56-23-5, Carcinogen: N-NITROSODIETHYLAMINE, 55-18-5, 2-ACETYLAMINOFLUORENE, 53-93-6, CARBON TETRACHLORIDE, 56-23-5, Dose [Inhibitor]: 0, 0.75% IN DIET FOR 29 WK ADMINISTERED TO RATS BEARING PERSISTENT NODULES FOLLOWING CARCINOGEN TREATMENT (STUDY DURATIO, Route [Inhibitor]: ORAL, Species: RAT, Strain/Sex: F344/MALE, Target Tissue: Type of Lesion: LIVER: HEPATOCELLULAR CARCINOMA, Dose [Carcinogen]: 200 MG/KG BW DEN ONCE, 0.002% 2-AAF IN DIET FOR 2 WK, 1 ML/KG BW CCL4 MIDWAY IN 2-AAF TREATMENT, Dose [Carcinogen]: 200 MG/KG BW DEN ONCE, 0.002% 2-AAF IN DIET FOR 2 WK, 1 ML/KG BW CCL4 MIDWAY IN 2-AAF TREATMENT, Promoter: PHENOBARBITAL, 50-06-6) 12/12 (100%), 12/14 (86%), 14%, not significant; (Carcinogen: N-[4-(5-NITRO-2-FURYL)-2-THIAZOLYL]FORMAMIDE, 24554-26-5, Dose [Inhibitor]: 0.5% IN DIET FOR 2 D PRIOR TO AND FOR 7 D AFTER CARCINOGEN ADMINISTRATION (13 WK TOTAL) FOLLOWED BY 56 WK ON CONTROL DIE, Route [Inhibitor]: ORAL, Species: RAT, Strain/Sex: FISCHER/MALE, Target Tissue: Type of Lesion: URINARY BLADDER: CARCINOMA, Dose [Carcinogen]: 0.2% IN DIET SIMULTANEOUSLY WITH INHIBITOR FOR 12 WK, Promoter: NONE USED) 18/21 (86%), 10/27 (37%), 57%, p<0.001.
